From patent US11299435B2, “Urea-based composition and method for the manufacture thereof” (Yara International ASA, priority 2017, dated 2022)

Assays:
Type in all cases: physicochemical
[1] = Stability of nBTPT in solution with added alkaline compound (HPLC nBTPT content); conditions: closed plastic containers
Description: Lab scale experiments with nBTPT in solution: • An aqueous solution of nBTPT was made by dissolving 3 g nBTPT powder in 1 L water. In a next step an alkaline compound could be added. • A solution of 17.5% nBTPT in PG was made by dissolving step by step 17.5 g nBTPT powder in 82.5 g PG. In a next step, an alkaline compound could be added. • The commercial liquid nBTPT formulation Agrotain® Ultra was mixed with and/or without the presence of an alkaline stabilizer
(§1) Closed plastic container at room temperature (20° C.)
(§2) 50° C. closed plastic container
(§3) HPLC analysis of nBTPT is done as described in the procedure CEN 15688-2007.
In a first experiment, a solution of 17.5% nBTPT in PG was made and in a next step an alkaline compound was added. Subsequently, the solutions were stored in closed plastic containers for 5 days at room temperature (20° C.) and subsequently 7 days at 50° C. and the decomposition of nBTPT was followed.
In a second experiment, an alkaline compound was added to Agrotain® Ultra. Subsequently, the nBTPT solutions were stored in closed plastic containers for 5 days at room temperature (20° C.) and the decomposition of nBTPT was followed.
In a third experiment, an aqueous solution of 3.0 g nBTPT in 1 L water was made and in a next step an alkaline compound was added. Subsequently, the aqueous solutions were stored in closed plastic containers for 5 days at room temperature (20° C.) and the decomposition of nBTPT was followed.

[2] = Stability of nBTPT melt-mixed in urea granules during storage (HPLC nBTPT content)
Description: For pilot scale experiments applying nBTPT in urea, nBTPT, as powder or as liquid formulations, was mixed in urea in the following way: nBTPT was added to urea melt, with and/or without the presence of an alkaline stabilizer and subsequently, this mixture was granulated in a fluidized bed granulator.
nBTPT in urea granules, with and/or without the presence of an alkaline stabilizer, were produced in the urea pilot plant in Sluiskil (Yara International ASA). This pilot plant has a batch capacity—after sieving—of about 50 kg of on-spec product. It basically consists of a stirred urea preparation vessel with an active volume of about 150 litres and a fluidized bed granulator of the UFT-type, equipped with a spraying nozzle of the spiral-type or HFT-type (EP 1701798 B1, 2005, Yara International ASA).
The samples were stored under several conditions, dependent on the type of samples:
as §1
Open to air at 20° C. with a relative humidity of 80%
For some samples, an accelerated stability test was done storing these samples at elevated temperatures:
40° C. closed plastic container
as §2
(§4) 70° C. closed plastic container
as §3
In the first experiment, 500 ppm nBTPT powder was added into urea melt, with and/or without the presence of an alkaline stabilizer, and in a next step this melt composition was converted into urea granules in a fluidized bed granulator. Subsequently, the granules were stored for 98 days at 40° C. in closed plastic containers and the decomposition of nBTPT was followed.
In a second experiment, the effect of other alkaline stabilizers such as CaO and CaCO3 was shown in comparison with NaOH. 500 ppm nBTPT powder was added into urea melt, containing an alkaline stabilizer, and in a next step, this melt composition was converted into urea granules in a fluidized bed granulator. Subsequently, the granules were stored for 109 days at 50° C. in closed plastic containers and the decomposition of nBTPT was followed.
On top of that, the granules were also stored for 1564 days (more than 4 years!) at room temperature (20° C.) in closed plastic containers and the decomposition of nBTPT was followed. […] With the addition of 1% CaO or CaCO3 a recovery of nBTPT higher than 40% was found after a long storage period of more than 4 years at room temperature.
In a third experiment, 500 ppm nBTPT powder was added into a urea melt, with and/or without the presence of 0.1% B as borax, and in a next step this melt composition was converted into urea granules in a fluidized bed granulator. Subsequently, the granules were stored for 57 days at 20° C./80% R.H. in open plastic containers and the decomposition of nBTPT was followed.
In a fourth experiment, 600 ppm nBTPT powder was added into a urea melt, with and/or without the presence of an alkaline stabilizer, and in a next step this melt composition was converted into urea granules in a fluidized bed granulator. Subsequently, the granules were stored for 15 days at 70° C. in closed plastic containers and the decomposition of nBTPT was followed.

[3] = Stability of nBTPT applied on moisturized urea granules during storage (HPLC nBTPT content); conditions: vs no stabilizer, closed plastic containers, 70° C., 15 days (FIG. 6)
Description: For lab scale experiments for applying nBTPT on urea, nBTPT, as powder or as liquid formulations, was applied onto urea by adding 1.2 kg of urea to a lab scale drum. In a next step, the nBTPT material, with and/or without the presence of an alkaline stabilizer, was slowly added. A residence time of 10 minutes was applied and the rotating speed of the drum was consequently the same in each experiment. Larger scale experiments with amounts up to 40 kg of fertilizer material were performed in a concrete mixer.
as §4, §3
600 ppm nBTPT powder was mixed with and/or without the presence of an alkaline stabilizer and subsequently added on urea granules, which were moisturized from 0.20% H2O to 0.60% H2O. This moisturization was done to create a higher moisture level of the urea granules to simulate moisture take up during storage in market conditions.
Subsequently, the urea granules were stored for 15 days at 70° C. in closed plastic containers and the decomposition of nBTPT was followed.

Structure (SMILES): CCCCNP(N)(N)=S [nBTPT, N-(n-butyl) thiophosphoric triamide]
- effect on the stability of nBTPT in solution ([1]; 17.5% nBTPT in propylene glycol (PG) + 5% CaO vs none, 5 days at 20° C. then 7 days at 50° C. (FIG. 7)): negative effect
- effect on the stability of nBTPT in solution ([1]; 17.5% nBTPT in propylene glycol (PG) + 5% NaOH vs none, 5 days at 20° C. then 7 days at 50° C. (FIG. 7)): negative effect
- effect on the stability of nBTPT in solution ([1]; aqueous solution 3 g nBTPT/L water + 1% CaO vs none, 5 days at 20° C. (FIG. 9)): negative effect
- effect on the stability of nBTPT in solution ([1]; aqueous solution 3 g nBTPT/L water + 1% Na2CO3 vs none, 5 days at 20° C. (FIG. 9)): negative effect
- effect on the stability of nBTPT in solution ([1]; aqueous solution 3 g nBTPT/L water + 1% NaHCO3 vs none, 5 days at 20° C. (FIG. 9)): negative effect
- effect on the stability of nBTPT in solution ([1]; aqueous solution 3 g nBTPT/L water + 1% NaOH vs none, 5 days at 20° C. (FIG. 9)): negative effect
- stability of nBTPT in urea ([2]; 500 ppm nBTPT powder in urea + 1% CaCO3, compared with urea + 500 ppm NaOH, closed plastic containers, 50° C., 109 days (FIG. 2)): even higher stability
- stability of nBTPT in urea ([2]; 500 ppm nBTPT powder in urea + 1% CaCO3, compared with urea + 500 ppm NaOH, closed plastic containers, room temperature (20° C.), 1564 days (FIG. 3)): even higher stability
- stability of nBTPT in urea ([2]; 500 ppm nBTPT powder in urea + 1% CaO, compared with urea + 500 ppm NaOH, closed plastic containers, 50° C., 109 days (FIG. 2)): even higher stability
- stability of nBTPT in urea ([2]; 500 ppm nBTPT powder in urea + 1% CaO, compared with urea + 500 ppm NaOH, closed plastic containers, room temperature (20° C.), 1564 days (FIG. 3)): even higher stability
- effect on the stability of nBTPT in urea granules during storage ([2]; 500 ppm nBTPT powder in urea + NaOH (200, 500, 1000 ppm) vs no NaOH, closed plastic containers, 40° C., 98 days, stability increases with NaOH dosage (FIG. 1)): positive effect
- effect on the stability of nBTPT in urea granules during storage ([2]; 600 ppm nBTPT powder in urea + 1% CaCO3 vs no stabilizer, closed plastic containers, 70° C., 15 days (FIG. 5)): big positive effect
- effect on the stability of nBTPT in urea granules during storage ([2]; 600 ppm nBTPT powder in urea + 1% CaO vs no stabilizer, closed plastic containers, 70° C., 15 days (FIG. 5)): big positive effect
- stability of the urease inhibitor in the composition according to the invention ([2]; bagged conditions without the presence of a head space (exclusion of moisture and atmospheric gasses)): further increased
- effect on the stability of nBTPT in urea granules during storage ([2]; nBTPT powder in urea + 0.1% B as borax vs no borax, open plastic containers, 20° C./80% R.H., 57 days (FIG. 4)): big positive effect
- effect on the stability of nBTPT on urea granules during storage ([3]; [600 ppm nBTPT powder + 2600 ppm MgO] on urea moisturized from 0.20% to 0.60% H2O): positive effect
- effect on the stability of nBTPT on urea granules during storage ([3]; [600 ppm nBTPT powder + 6000 ppm CaCO3] on urea moisturized from 0.20% to 0.60% H2O): positive effect
